Molecular target: Sucrase-isomaltase, intestinal (Rattus norvegicus, UniProt P23739)
Assay: Inhibition of rat intestinal sucrase

Sucrase-isomaltase, intestinal, sequence (P23739 1-1013 limits assumed): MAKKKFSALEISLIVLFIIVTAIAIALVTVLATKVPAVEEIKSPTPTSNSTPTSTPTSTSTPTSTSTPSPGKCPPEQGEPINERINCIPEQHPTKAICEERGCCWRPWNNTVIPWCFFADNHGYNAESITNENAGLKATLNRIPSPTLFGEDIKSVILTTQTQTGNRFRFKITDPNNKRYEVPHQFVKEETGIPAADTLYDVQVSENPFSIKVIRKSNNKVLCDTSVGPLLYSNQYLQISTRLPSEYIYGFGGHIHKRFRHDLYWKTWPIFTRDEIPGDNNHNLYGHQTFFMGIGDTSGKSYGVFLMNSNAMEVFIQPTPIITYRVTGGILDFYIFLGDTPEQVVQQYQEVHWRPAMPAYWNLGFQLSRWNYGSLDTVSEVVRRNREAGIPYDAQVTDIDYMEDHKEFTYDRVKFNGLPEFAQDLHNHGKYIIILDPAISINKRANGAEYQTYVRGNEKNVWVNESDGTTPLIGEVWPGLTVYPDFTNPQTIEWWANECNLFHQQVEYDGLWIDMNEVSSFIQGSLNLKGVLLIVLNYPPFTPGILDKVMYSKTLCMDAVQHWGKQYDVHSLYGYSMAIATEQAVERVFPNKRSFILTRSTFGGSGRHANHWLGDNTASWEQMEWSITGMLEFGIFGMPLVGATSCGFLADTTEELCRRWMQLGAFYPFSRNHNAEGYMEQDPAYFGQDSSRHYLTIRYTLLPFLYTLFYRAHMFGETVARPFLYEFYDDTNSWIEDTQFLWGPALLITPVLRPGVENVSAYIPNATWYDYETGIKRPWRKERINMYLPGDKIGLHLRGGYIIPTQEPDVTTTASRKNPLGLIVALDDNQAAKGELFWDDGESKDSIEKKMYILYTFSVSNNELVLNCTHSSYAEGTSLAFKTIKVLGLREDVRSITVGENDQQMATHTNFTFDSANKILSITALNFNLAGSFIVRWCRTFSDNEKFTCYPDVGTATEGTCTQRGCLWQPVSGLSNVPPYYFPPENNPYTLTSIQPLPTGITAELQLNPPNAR
Sucrase-isomaltase, intestinal, sequence (P23739 1014-1841 limits assumed): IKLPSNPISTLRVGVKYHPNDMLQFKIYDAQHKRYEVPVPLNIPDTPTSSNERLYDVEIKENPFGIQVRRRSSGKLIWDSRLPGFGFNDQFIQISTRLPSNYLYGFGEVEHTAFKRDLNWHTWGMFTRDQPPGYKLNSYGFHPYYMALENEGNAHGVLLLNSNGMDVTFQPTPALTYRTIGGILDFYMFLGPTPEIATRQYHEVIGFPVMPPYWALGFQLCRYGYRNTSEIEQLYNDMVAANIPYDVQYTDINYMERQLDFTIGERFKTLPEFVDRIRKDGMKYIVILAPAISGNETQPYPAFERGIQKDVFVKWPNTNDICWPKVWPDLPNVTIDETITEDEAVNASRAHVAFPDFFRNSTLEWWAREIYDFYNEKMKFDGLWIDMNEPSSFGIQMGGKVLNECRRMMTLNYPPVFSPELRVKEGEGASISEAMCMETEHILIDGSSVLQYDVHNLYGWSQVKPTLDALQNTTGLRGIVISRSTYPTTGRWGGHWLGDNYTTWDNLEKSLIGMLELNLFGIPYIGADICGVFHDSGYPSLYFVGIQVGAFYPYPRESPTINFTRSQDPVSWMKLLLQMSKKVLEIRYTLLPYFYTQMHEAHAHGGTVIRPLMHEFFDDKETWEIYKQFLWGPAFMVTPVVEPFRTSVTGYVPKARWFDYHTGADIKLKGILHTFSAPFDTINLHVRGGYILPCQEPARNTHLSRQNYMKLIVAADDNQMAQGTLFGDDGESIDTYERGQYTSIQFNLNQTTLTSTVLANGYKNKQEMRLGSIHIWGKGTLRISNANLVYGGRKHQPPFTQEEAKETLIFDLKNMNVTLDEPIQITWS

Compound	IC50 [nM]
O[C@H]1[C@H](O)[C@@H](O)CN2C[C@@H](O)[C@@H](O)[C@H]12	3100
O[C@H]1[C@H]2[C@H](O)[C@H](O)CN2[C@H](O)C[C@H]1O [UNIFLORINE B]	1800

Reference: ChEMBL document CHEMBL1154357, “Total synthesis of (-)-uniflorine A” (J Nat Prod, 2009)
